Values of other authors as cited in patent US20120115745A1, “METHODS FOR PREDICTING SENSITIVITY TO TREATMENT WITH A TARGETED TYROSINE KINASE INHIBITOR” (priority 2010, published 2012).

Experiments:
[1] = tested on: tumor cells that are dependent on mutant, constitutively active, FLT3 and KIT kinases
[2] = target: unrelated receptor tyrosine kinases, soluble tyrosine kinases and serine/threonine kinases; conditions: less activity than against VEGF and PDGF receptor families

IC50 [2]: > 1000 nM
SMILES: Cc1ccc(F)c(NC(=O)Nc2ccc(-c3cccc4[nH]nc(N)c34)cc2)c1 [ABT-869, N-(4-(3-amino-1H-indazol-4-yl)phenyl)-N′-(2-fluoro-5-methylphenyl)urea]
anti-proliferative and apoptotic effects on tumor cells [1]: potent anti-proliferative and apoptotic effects
